Measured values published in ChEMBL document CHEMBL3108702, “Purinergic receptor P2X₇: a novel target for anti-inflammatory therapy” (Bioorg Med Chem, 2014).

Biological target: T1, P2X purinoceptor 7 (Homo sapiens, UniProt Q99572)
T1 sequence (Q99572 whole entry): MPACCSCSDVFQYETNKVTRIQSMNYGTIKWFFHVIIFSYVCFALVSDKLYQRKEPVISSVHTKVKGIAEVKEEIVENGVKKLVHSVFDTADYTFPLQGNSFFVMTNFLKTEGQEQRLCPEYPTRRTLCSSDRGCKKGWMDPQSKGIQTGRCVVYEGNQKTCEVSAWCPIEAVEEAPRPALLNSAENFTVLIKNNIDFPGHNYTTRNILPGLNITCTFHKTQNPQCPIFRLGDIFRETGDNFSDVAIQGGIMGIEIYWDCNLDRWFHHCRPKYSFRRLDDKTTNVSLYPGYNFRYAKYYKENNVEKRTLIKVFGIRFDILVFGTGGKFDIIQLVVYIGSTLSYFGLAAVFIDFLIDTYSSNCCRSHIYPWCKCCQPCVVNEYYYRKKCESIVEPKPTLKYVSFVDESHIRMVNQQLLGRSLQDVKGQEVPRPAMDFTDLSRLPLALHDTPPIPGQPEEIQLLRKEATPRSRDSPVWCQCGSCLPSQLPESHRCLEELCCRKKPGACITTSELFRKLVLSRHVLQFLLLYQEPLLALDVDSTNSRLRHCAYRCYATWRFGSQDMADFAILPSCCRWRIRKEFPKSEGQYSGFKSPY
Assay: Antagonist activity at P2X7 receptor (unknown origin)

Q: With `O=C(NCC12CC3CC(CC(C3)C1)C2)c1ccccc1Cl` as the molecule, how does the IC50 (read-out: pIC50 (converted)) read?
A: 0.00794 µM

Q: For `Cc1nn(-c2ccccc2)c(C)c1NC(=O)NCc1ccc(F)cc1Cl`, which IC50 (read-out: pIC50 (converted)) is on record?
A: > 1 µM

Q: `CN(Cc1ccc(Cl)cc1)CC12CC3CC(CC(C3)C1)C2` was tested. Which IC50 (read-out: pIC50 (converted)) did it give?
A: 3.98 µM

Q: Which IC50 (read-out: pIC50 (converted)) does the source give for `O=C(NCC12CC3CC(C1)CC(CNC(=O)c1ccc(Cl)cc1Cl)(C3)C2)c1ccc(Cl)cc1Cl` here?
A: 0.126 µM

Q: How did the IC50 (read-out: pIC50 (converted)) turn out when `Clc1cccc(-n2ncnc2NCc2cccnc2)c1Cl` was run?
A: 0.00912 µM

Q: For `CN(CC12CC3CC(CC(C3)C1)C2)C(=O)c1ccc(Cl)cc1`, which IC50 (read-out: pIC50 (converted)) is on record?
A: 3.98 µM

Q: `O=C(CN1CC(=O)N(c2ccccc2)C1=O)NCc1ccc(F)cc1Cl` was tested. Which IC50 (read-out: pIC50 (converted)) did it give?
A: > 1 µM

Q: Which IC50 (read-out: IC50) does the source give for `CN([C@@H](Cc1ccc(OS(=O)(=O)c2cccc3cnccc23)cc1)C(=O)N1CCN(c2ccccc2)CC1)S(=O)(=O)c1cccc2cnccc12` here?
A: 0.0944 µM

Q: With `COc1cccc(NC(=O)CC23CC4CC(CC(C4)C2)C3)c1C` as the molecule, how does the IC50 (read-out: pIC50 (converted)) read?
A: 0.00501 µM

Q: Which IC50 (read-out: pIC50 (converted)) does the source give for `COc1ccc(C)c(NC(=O)CC23CC4CC(CC(C4)C2)C3)c1` here?
A: 0.01 µM

Q: For `COc1ccc(Cl)c(NC(=O)CC23CC4CC(CC(C4)C2)C3)c1`, which IC50 (read-out: pIC50 (converted)) is on record?
A: 0.0631 µM

Q: For `O=C(CC12CC3CC(CC(C3)C1)C2)Nc1ccc(Cl)cc1`, which IC50 (read-out: pIC50 (converted)) is on record?
A: 0.501 µM

Q: Which IC50 (read-out: pIC50 (converted)) does the source give for `Cc1cccc(-c2nnnn2Cc2cccnc2)c1C` here?
A: 0.251 µM

Q: With `CC(NC(=O)c1ccc(Cl)cc1)C12CC3CC(CC(C3)C1)C2` (stereo not drawn) as the molecule, how does the IC50 (read-out: pIC50 (converted)) read?
A: 0.398 µM

Q: With `COc1cccc(-c2nnnn2Cc2cccnc2)c1OC` as the molecule, how does the IC50 (read-out: pIC50 (converted)) read?
A: 3.98 µM

Q: With `Cc1nn(-c2ccccc2)c(C)c1Cc1nnc(Cc2ccc(Cl)cc2Cl)o1` as the molecule, how does the IC50 (read-out: pIC50 (converted)) read?
A: > 1 µM

Q: `CN([C@@H](Cc1ccc(OS(=O)(=O)c2cccc3cnccc23)cc1)C(=O)N1CCN(Cc2ccccc2)CC1)S(=O)(=O)c1cccc2cnccc12` was tested. Which IC50 (read-out: IC50) did it give?
A: 0.0653 µM

Q: Which IC50 (read-out: pIC50 (converted)) does the source give for `O=C(NCC12CC3CC(CC(C3)C1)C2)c1ccc(Cl)cc1Cl` here?
A: 0.398 µM
